Tests used:
synovial fibroblasts = assay: Synoviocyte proliferation (Trypan blue counting); conditions: 24 hours
[1] = Release from 50:50 ELVAX:poly-l-lactic acid microspheres; format: physicochemical; conditions: 18 hours of tumbling at 37° C.
Method: Microspheres are then prepared in a dissolution machine (Six-spindle dissolution tester, VanderKanp, Van Kell Industries Inc., U.S.A.) in triplicate at 200 rpm, 42° C., for 3 hours. Microspheres so prepared are washed twice in water and sized on the microscope.

synoviocytes = assay: 3H-thymidine incorporation into synoviocytes; format: cell-based; conditions: 6 or 24 hours incubation
Method: At these times, 1×10^−6 cpm of ^3H-thymidine was added to the cell culture and incubated for 2 hours at 37° C. The cells were placed through a cell harvester, washed through a filter, the filters were cut, and the amount of radiation contained in the filter sections determined. Once the amount of thymidine incorporated into the cells was ascertained, it was used to determine the rate of cell proliferation. This experiment was repeated three times and the data collated together.

c-fos mRNA = assay: c-fos expression in chondrocytes (Northern blot); format: cell-based, bovine; conditions: 10^−6 M, 10^−7 M and 10^−8 M for 2 hours, then TNF 30 ng/ml for 1 hour
Method: Total RNA from bovine articular chondrocytes was isolated by the acidified guanidine isothiocyanate method and the levels of c-fos mRNA determined by Northern blot analysis. Denatured RNA samples (12 μg) were analyzed by gel electrophoresis in a denaturing 1% agarose gel, transferred to a nylon membrane (Bio-Rad), cross-linked with an ultraviolet cross-linker (Stratagene UV stratalinker 1800), and hybridized with ^32P-labeled rat c-fos DNA. mRNA for tubulin and total RNA were used as controls. To determine tubulin mRNA, the blots described above were subsequently stripped of DNA and re-probed with ^32P-labeled rat P-tubulin cDNA. This experimented was conducted three times and the data collated.

neutrophils [2] = assay: Neutrophil viability (LDH release); conditions: paclitaxel at 46 μM for one hour at 37° C.
Method: Neutrophils were prepared from freshly collected human citrated whole blood. Briefly, 400 ml of blood were mixed with 80 ml of 4% dextran T500 (Phamacia LKB, Biotechnology AB Uppsala, Sweden) in HBSS and allowed to settle for 1 h. Plasma was collected continuously and 5 ml applied to 5 ml of Ficoll Paque (Pharmacia) in 15 ml polypropylene tubes (Corning, N.Y.). Following centrifugation at 500×g for 30 min, the neutrophil pellets were washed free of erythrocytes by 20 s of hypotonic shock. Neutrophils were resuspended in HBSS, kept on ice and used for experiments within 3 h. Neutrophil viability and purity was always greater than 90%.
Cells were incubated for 20 minutes at 33° C. then for 10 minutes at 37° C. before addition to crystals or zymosan.
Control tubes containing cells with drug (crystals absent) from degranulation experiments were also assayed for LDH.

neutrophils [3] = assay: Neutrophil chemiluminescence assay; format: cell-based; conditions: Homo sapiens, paclitaxel at 28 μM, read-out: inhibition of the peak chemiluminescence response
Method: (§1) Opsonization of crystals or zymosan was done with 50% heparinized plasma at a concentration of 75 mg of CPPD or 12 mg of zymosan per ml of 50% plasma. Crystals or zymosan were incubated with plasma for 30 min. at 37° C. and then washed in excess HBSS.
All chemiluminescence studies were performed at a cell concentration of 5,000,000 cells/ml in HBSS with CPPD (50 mg/ml). In all experiments 0.5 ml of cells was added to 25 mg of CPPD or 0.5 mg of zymosan in 1.5 ml capped Eppendorf tubes. 10 μl of luminol dissolved in 25% DMSO in HBSS was added to a final concentration of 1 μM and the samples were mixed to initiate neutrophil activation by the crystals or zymosan. Chemiluminescence was monitored using an LKB Luminometer (Model 1250.) at 37° C. with shaking immediately prior to measurements to resuspend the crystals or zymosan. Control tubes contained cells, drug and luminol (crystals absent).

neutrophils [4] = assay: Neutrophil superoxide anion generation; format: cell-based, human; conditions: paclitaxel at 28 μM
Method: as §1
Superoxide anion concentrations were measured using the superoxide dismutase inhibitable reduction of cytochrome c assay. Briefly, 25 mg of crystals or 0.5 mg of zymosan was placed in a 1.5 ml capped Eppendorf tube and warmed to 37° C. 0.5 ml of cells at 370 C were added together with ferricytochrome c (final concentration 1.2 mg/ml) and the cells were activated by shaking the capped tubes. […] Control tubes were set up under the same conditions with the inclusion of superoxide dismutase at 600 units per ml.

collagenase mRNA = assay: IL-1 induced collagenase expression in chondrocytes (Northern blot); format: cell-based, bovine; conditions: 10^−6 M, 2 hours prior to IL-1 (20 ng/ml), further 16 hours
Method: The cells were then incubated for a further 16 hours. Total RNA from bovine articular chondrocytes was isolated by the acidified guanidine isothiocyanate method and the collagenase mRNA determined by Northern blot analysis. The RNA samples were prepared as described above using ^32P-labeled rat collagenase cDNA.

normal chondrocytes = assay: Chondrocyte viability (Trypan blue counting); format: cell-based; conditions: up to 10^−5 M, 72 hours
[5] = system: chick chorioallantoic membrane (CAM); assay: Chick chorioallantoic membrane (CAM) assay, agent in methylcellulose disks; conditions: for Embryos Evaluated positive/total: 48 hours
neutrophils [6] = assay: Neutrophil degranulation assay (myeloperoxidase, lysozyme)
[7] = MTX release from PCL paste; format: physicochemical; conditions: high MePEG concentrations (20% MePEG in PCL)
Method: A known weight of a polymer (typically a 2.5 mg pellet) is added to a 15 ml test tube containing 14 ml of a buffer containing 10 mm Na2HPO4—NaH2PO4, 0.145 m NaCl and 0.4 g/l bovine serum albumin. The tubes are capped and tumbled at 37° C. At specific times all the 14 ml of the liquid buffer are removed and replaced with fresh liquid buffer.
For MTX the collected buffer is applied directly to the HPLC column with no need for extraction in methylene chloride. MTX is analyzed at 302 nm. For Vanadium containing compounds the liquid buffer is analyzed directly using a UV/VIS spectrometer in the 200 to 300 nm range.
Methotrexate (“MTX”; Sigma Chemical Co.) is ground in a pestle and mortar to reduce the particle size to below 5 microns. It is then mixed as a dry powder with polycaprolactone (molecular wt 18000 Birmingham Polymers, Alabama USA). The mixture is heated to 65° C. for 5 minutes and the molten polymer/methotrexate mixture is stirred into a smooth paste for 5 minutes. The molten paste is then taken into a 1 mL syringe, and extruded as desired.

[8] = Vanadyl sulfate release from PCL paste; format: physicochemical
Method: Drug release was determined essentially as described above in Example 33, except that a 65 mg pellet of a 10% w/w VOSO4:PCL was suspended in 10 ml of water and the supernatant analyzed for released Vanadyl Sulphate using UV/Vis absorbance spectroscopy of the peak in the 200 to 300 nm range.

CC(=O)O[C@H]1C(=O)[C@@]2(C)[C@H]([C@H](OC(=O)c3ccccc3)[C@]3(O)C[C@H](OC(=O)[C@H](O)[C@@H](NC(=O)c4ccccc4)c4ccccc4)C(C)=C1C3(C)C)[C@]1(OC(C)=O)CO[C@@H]1C[C@@H]2O [Paclitaxel]
toxicity to synovial fibroblasts in vitro (synovial fibroblasts; 10^−6 M and 10^−5 M): toxic
lowest concentration inhibiting proliferation of the synoviocytes (synovial fibroblasts): 10^−7 M
% of the total drug released from the microspheres (fluorescence assay) [1]: 6%
% of the total drug released from the microspheres (uv/vis assay) [1]: 10.3%
lowest concentration inhibiting incorporation of 3H-thymidine (synoviocytes): 10^−8 M
effect on c-fos expression (c-fos mRNA): does not alter c-fos expression
LDH release (neutrophils [2]): less than 5 % of total
inhibition at 28 µM (neutrophils [3]; plasma opsonised zymosan): 45%
inhibition at 28 µM (neutrophils [3]; plasma opsonized CPPD): 52%
effect on superoxide anion production (neutrophils [4]; opsonised zymosan): less dramatic than the inhibition of CPPD activation but was significant at all times
effect on superoxide anion production (neutrophils [4]; plasma opsonised CPPD crystals): decrease in the amount of superoxide generated at all times
effect on IL-1 induced collagenase expression (collagenase mRNA): completely inhibited
effect on viability of normal chondrocytes (normal chondrocytes): does not affect the viability
Embryos Evaluated positive/total ([5]; 0.25 μg paclitaxel in methylcellulose disk): 2/11
Embryos Evaluated positive/total ([5]; 0.5 μg paclitaxel in methylcellulose disk): 6/11
Embryos Evaluated positive/total ([5]; 1 μg paclitaxel in methylcellulose disk): 6/15
Embryos Evaluated positive/total ([5]; 5 μg paclitaxel in methylcellulose disk): 20/27
Embryos Evaluated positive/total ([5]; 10 μg paclitaxel in methylcellulose disk): 16/21
Embryos Evaluated positive/total ([5]; 30 μg paclitaxel in methylcellulose disk): 31/31
time for which avascular zones did not revascularize after application ([5]; in one study): at least 7 days
earliest time at which inhibition of angiogenesis occurs after application ([5]; observed over the 48 hour duration): 9 h
avascular zone diameter ([5]; paclitaxel in methylcellulose disk, 48 hour exposure): 6 mm
avascular gradient scale (maximal avascular zone) ([5]; within 48 hours, depending on concentration): 3
inhibition at 28 µM (neutrophils [6]; Homo sapiens, Neutrophil, […], read-out: inhibition of MPO release): 50%
effect on lysozyme release (neutrophils [6]; paclitaxel at 28 μM, plasma opsonized CPPD): reduced lysozyme release
effect on myeloperoxidase release (neutrophils [6]; plasma opsonized CPPD, paclitaxel 28 μM (FIG. 32A)): significantly inhibited

CN(Cc1cnc2nc(N)nc(N)c2n1)c1ccc(C(=O)N[C@@H](CCC(=O)O)C(=O)O)cc1 [MTX, Methotrexate]
amount of MTX released from the polymer [7]: substantial amounts

O=S(=O)([O-])[O-].[O]=[V+2] [VOSO4, Vanadyl Sulfate]
amount of VOSO4 released ([8]; after 2 days, 65 mg pellet of 10% w/w VOSO4:PCL in 10 ml water): 3 mg
amount of VOSO4 released ([8]; by day 6, 65 mg pellet of 10% w/w VOSO4:PCL in 10 ml water): 5 mg
amount of VOSO4 released ([8]; in 6 hours, 65 mg pellet of 10% w/w VOSO4:PCL in 10 ml water): 1 mg

Reference: patent publication US20060121117A1, “Anti-angiogenic compositions and methods of use” (ANGIOTECH PHARMACEUTICALS, INC., priority 1993, published 2006)
